In patent US20150133456A1, “FLUOROERGOLINE DERIVATIVES AND USES THEREOF” (MAP PHARMACEUTICALS, INC., priority 2012, published 2015):

What was measured:
[1] = test system: Glutamate (mGlu3/mGlu5/mGlu7); test: Glutamate receptor screen (Aequorin mGlu3/mGlu5, cAMP mGlu7); format: cell-based, human
Procedure: For mGlu3 and mGlu5, CHO-K1 cells coexpressing mitochondrial apoaequorin and recombinant human receptor grown to mid-log phase in culture media without antibiotics and supplemented with doxycycline, (final concentration of 600 ng doxycycline/mL), was detached with PBS-EDTA, centrifuged and resuspended in assay buffer (HBSS, 2.1 mM CaCl2, 3 μg/mL GPT (Glutamate-Pyruvate transaminase), 4 mM MEM Sodium Pyruvate, 0.1% BSA protease free) at a concentration of 1×10^6 cells/mL. Cells were incubated at room temperature for at least 4 hours with coelenterazine h. Reference agonist/antagonist was tested to evaluate the performance of the assay and to determine EC50/IC50. […]
Cells expressing the human recombinant receptor of interest were grown in media without antibiotic and detached by gentle flushing with PBS-EDTA (5 mM EDTA), recovered by centrifugation and resuspended in assay buffer (KRH: 5 mM KCl, 1.25 mM MgSO4, 124 mM NaCl, 25 mM HEPES, 13.3 mM glucose, 1.25 mM KH2PO4, 1.45 mM CaCl2, 0.5 g/L BSA). […] Lysis buffer was added and after a 1 hour incubation, cAMP concentrations was determined according to the manufacturer specification with the HTRF kit. […] Lysis buffer was added and after a 1 hour incubation, cAMP concentrations were determined according to the manufacturer specification, with the HTRF kit.

CCK2 = molecular target: T1, CCK2 (Homo sapiens, UniProt P32239); test: Cholecystokinin receptor Aequorin assay; format: cell-based; conditions: antagonism
T1 construct: expressed in transfected cells; host or cells: CHO-AEQ (CHO-K1 with mitochondrial apoaequorin)
T1 sequence (P32239 whole entry): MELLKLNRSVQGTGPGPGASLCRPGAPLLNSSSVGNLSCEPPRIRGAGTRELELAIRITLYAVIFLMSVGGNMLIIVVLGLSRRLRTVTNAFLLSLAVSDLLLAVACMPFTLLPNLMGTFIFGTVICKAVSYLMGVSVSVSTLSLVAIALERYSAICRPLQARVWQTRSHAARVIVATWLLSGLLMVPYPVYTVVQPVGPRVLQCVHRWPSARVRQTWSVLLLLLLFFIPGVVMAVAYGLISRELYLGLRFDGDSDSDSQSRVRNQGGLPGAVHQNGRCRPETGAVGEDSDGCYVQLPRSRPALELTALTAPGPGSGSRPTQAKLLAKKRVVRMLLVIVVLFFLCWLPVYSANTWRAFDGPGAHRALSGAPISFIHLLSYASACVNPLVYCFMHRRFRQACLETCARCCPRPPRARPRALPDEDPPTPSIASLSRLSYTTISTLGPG
Procedure: CHO-K1 cells coexpressing mitochondrial apoaequorin and the recombinant human receptor of interest were grown to mid-log phase in culture media without antibiotics and then detached with PBS-EDTA, centrifuged and resuspended in assay buffer (DMEM/HAM's F12 with HEPES, without phenol red+0.1% BSA, protease free) at a concentration of 1×10^6 cell/mL. Cells were incubated at room temperature for at least 4 hours with coelenterazine h. Reference agonist/antagonist was tested to evaluate the performance of the assay and to determine EC50/IC50.
50 μL of the cell suspension was mixed with 50 μL of test or reference agonist in a 96-well plate. […] For antagonist testing, 100 μL of the reference agonist at its EC80 was injected on the mix of cells and test compound, following an incubation of 15 minutes after the first injection. The resulting emission of light was r recorded using Hamamatsu Functional Drug Screening System 6000 (FDSS 6000) luminometer. To standardize the emission of recorded light (and determine of the “100% signal”) across plates and across different experiments, some wells contained 100 μM digitonin or a saturating concentration of ATP (20 μM).

[2] = Metabolism in human liver microsomes; conditions: 1 μM, 0.2 mg protein/mL
Procedure: Metabolism of dihydroergotamine (DHE) and 2-CF3 DHE was evaluated in human liver microsomes. DHE mesylate and 2-CF3 DHE mesylate (1 μM each) were incubated separately with human liver microsomes (0.2 mg protein/mL) in triplicate at 37° C. in 0.2 mL (final volume) incubation buffer (50 mM potassium phosphate buffer, pH 7.4, 3 mM MgCl2 and 1 mM EDTA, pH7.4) with or without cofactor, NADPH-generating system. The NADPH-generating system consisted of 1 mM NADP, pH 7.4, 5 mM glucose-6-phosphate, pH 7.4 and 1 unit/mL glucose-6-phosphate dehydrogenase. DHE was added to the incubation mixtures in water. 2-CF3-DHE was added to incubation mixtures in 50:50 (v:v) acetonitrile:water. A low level of acetonitrile in the incubation was maintained to avoid any solvent effects on enzyme activity (typically at 0.5% or lower). Reactions were initiated by the addition of the NADPH-generating system and were terminated at 0, 15, 30 and 60 minutes after initiation by the addition of […], of stop reagent (acetonitrile) containing two internal standards (4′-hydroxydiclofenac-d4 and 1′-hydroxymidazolam-d4, 200 and 50 ng/mL in the final stopped incubation, respectively). The samples were then centrifuged and the supernatant fractions were analyzed by LC/MS/MS to quantify the formation of 8′-OH-DHE (metabolite) in the DHE samples and DHE and 8′-OH-DHE in the 2-CF3-DHE samples.

human α2C receptor = human α2C receptor (Homo sapiens, UniProt P18825); test: GTPγS antagonist assay, α2C; format: biochemical; conditions: read-out: IC50, α2C antagonism
Sequence of human α2C receptor (P18825 whole entry): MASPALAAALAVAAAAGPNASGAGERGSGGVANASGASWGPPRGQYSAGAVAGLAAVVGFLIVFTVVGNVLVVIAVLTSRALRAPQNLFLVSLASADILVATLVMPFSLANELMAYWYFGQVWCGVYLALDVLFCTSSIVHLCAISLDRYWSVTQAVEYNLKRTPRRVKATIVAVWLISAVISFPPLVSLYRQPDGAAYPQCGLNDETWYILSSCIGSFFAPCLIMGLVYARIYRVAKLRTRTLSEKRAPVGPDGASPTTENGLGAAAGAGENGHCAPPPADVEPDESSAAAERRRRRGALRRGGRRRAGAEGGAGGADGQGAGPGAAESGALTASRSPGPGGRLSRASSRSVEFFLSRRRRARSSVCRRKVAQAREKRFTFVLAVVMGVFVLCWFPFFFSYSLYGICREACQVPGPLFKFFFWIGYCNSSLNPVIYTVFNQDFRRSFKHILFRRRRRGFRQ

Adenosine A2a = molecular target: T2, Adenosine A2a (Homo sapiens, UniProt P29274); test: Adenosine A2a cAMP HTRF assay; format: cell-based; conditions: HEK293, cAMP
T2 construct: expressed in transfected cells; host or cells: HEK293
T2 sequence (P29274 whole entry): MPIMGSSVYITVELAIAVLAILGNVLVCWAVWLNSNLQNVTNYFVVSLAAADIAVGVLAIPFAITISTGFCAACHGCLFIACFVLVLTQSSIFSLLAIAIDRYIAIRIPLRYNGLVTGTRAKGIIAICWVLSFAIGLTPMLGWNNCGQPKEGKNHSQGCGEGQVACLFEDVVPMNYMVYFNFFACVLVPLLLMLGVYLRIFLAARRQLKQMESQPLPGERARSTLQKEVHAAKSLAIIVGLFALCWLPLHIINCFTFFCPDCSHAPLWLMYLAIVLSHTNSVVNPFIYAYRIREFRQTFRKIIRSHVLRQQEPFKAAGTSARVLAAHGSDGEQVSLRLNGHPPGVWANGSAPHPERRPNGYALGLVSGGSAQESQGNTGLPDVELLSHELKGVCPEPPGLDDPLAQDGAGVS
Procedure: Cells expressing the human recombinant receptor of interest were grown in media without antibiotic and detached by gentle flushing with PBS-EDTA (5 mM EDTA), recovered by centrifugation and resuspended in assay buffer (KRH: 5 mM KCl, 1.25 mM MgSO4, 124 mM NaCl, 25 mM HEPES, 13.3 mM glucose, 1.25 mM KH2PO4, 1.45 mM CaCl2, 0.5 g/L BSA). Dose response curves were performed in parallel with the reference compounds. For agonist tests (96-well plates), 12 μL of cells was mixed with 12 μL of the test compound at increasing concentrations and then incubated for 30 minutes at room temperature. Lysis buffer was added and after a 1 hour incubation, cAMP concentrations was determined according to the manufacturer specification with the HTRF kit. For antagonist tests (96-well plates), 12 μL of cells was mixed with 6 μL of the test compound at increasing concentrations and then incubated for 10 minutes. 6 μL of the reference agonist was added at a final concentration corresponding to the historical EC80. The plates were then incubated for 30 minutes at room temperature. Lysis buffer was added and after a 1 hour incubation, cAMP concentrations were determined according to the manufacturer specification, with the HTRF kit.

human 5-HT1D receptor = human 5-HT1D receptor (Homo sapiens, UniProt P28221); test: GTPγS agonist assay, 5-HT1D; format: biochemical
Sequence of human 5-HT1D receptor (P28221 whole entry): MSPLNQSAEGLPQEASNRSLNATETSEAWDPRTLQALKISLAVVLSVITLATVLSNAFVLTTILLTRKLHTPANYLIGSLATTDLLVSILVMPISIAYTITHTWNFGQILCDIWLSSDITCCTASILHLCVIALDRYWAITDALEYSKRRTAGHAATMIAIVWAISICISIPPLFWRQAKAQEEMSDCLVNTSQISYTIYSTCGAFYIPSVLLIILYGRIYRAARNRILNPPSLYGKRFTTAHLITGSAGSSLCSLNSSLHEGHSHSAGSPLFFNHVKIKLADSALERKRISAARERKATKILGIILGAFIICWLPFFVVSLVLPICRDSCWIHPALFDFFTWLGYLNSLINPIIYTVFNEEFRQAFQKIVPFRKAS
Procedure: The mixture was shaken for 2 minutes prior to a 60 min incubation. It was then centrifuged for 10 minutes and counted for 1 minute with a Perkin Elmer TopCount reader. The resulting emission of light was recorded using a luminometer. Agonist percentage activation determinations were obtained by comparing with the Emax of the reference agonist α-methyl-5-HT.

α1D receptor = molecular target: T3, α1D receptor (Homo sapiens, UniProt P25100); test: Competitive antagonist activity, adrenergic α1D; format: cell-based; conditions: read-out: IC50, α1D antagonism
T3 construct: expressed in transfected cells
T3 sequence (P25100 whole entry): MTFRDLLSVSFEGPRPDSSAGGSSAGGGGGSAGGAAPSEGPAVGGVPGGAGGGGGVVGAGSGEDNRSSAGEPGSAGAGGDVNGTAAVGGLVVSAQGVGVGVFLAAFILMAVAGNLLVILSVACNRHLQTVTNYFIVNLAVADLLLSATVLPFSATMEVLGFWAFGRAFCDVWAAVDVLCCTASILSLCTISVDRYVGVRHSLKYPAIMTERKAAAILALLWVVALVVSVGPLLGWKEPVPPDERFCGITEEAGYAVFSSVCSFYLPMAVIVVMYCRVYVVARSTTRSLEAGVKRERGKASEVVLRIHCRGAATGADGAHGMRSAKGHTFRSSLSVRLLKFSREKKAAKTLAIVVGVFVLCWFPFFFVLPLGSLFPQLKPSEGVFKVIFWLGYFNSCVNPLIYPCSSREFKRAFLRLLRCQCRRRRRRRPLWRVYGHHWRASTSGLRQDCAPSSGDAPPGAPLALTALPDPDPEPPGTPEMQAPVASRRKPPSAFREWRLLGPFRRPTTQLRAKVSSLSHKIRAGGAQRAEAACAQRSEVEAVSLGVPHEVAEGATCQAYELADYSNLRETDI

## CN1C[C@H](C(=O)N[C@]2(C)O[C@@]3(O)[C@@H]4CCCN4C(=O)[C@H](Cc4ccccc4)N3C2=O)CC2c3cccc4[nH]c(C(F)(F)F)c(c34)CC21 (stereo partly drawn) [2-CF3-dihydroergotamine]
[1]
  Activity (Agonism: EC50; Antagonism: IC50): Inactive
CCK2
  IC50: > 10000 nM
[2]; 0 to 60 minutes
  metabolism by human liver microsomes in the presence of NADPH: extensively metabolized
[2]; with NADPH
  intrinsic clearance, slower than that of DHE: about 85%
Human α2C receptor
  IC50: 2780 nM
Adenosine A2a
  Emax: 25%
Adenosine A2a; read-out: EC50, Adenosine A2a agonism
  EC50: 5.27 nM
Human 5-HT1D receptor
  EC50: 13.6 nM
α1D receptor
  IC50: 40.2 nM
